This is an account of results in a melting point compilation (Tetko et al.; mined from patent text by program, amines drawn as free bases though some values may be those of a salt).

Where only a bound is given, the exact number is not on record here.

Broadly, the melting point is the temperature of the solid-liquid transition. `COC(=O)Cc1nsc(NC(=O)OCc2ccccc2)n1`: the melting point was in the range of 121 to 123 °C.

Compound `CC(=O)N=C(OC(C)=O)N1CCSC1c1ccccc1OCCN1CCN(c2cccc(F)c2)CC1` (configuration not stated) returned a melting point of 114 to 115 °C.

Consider `S=c1[nH]c(=S)c2[nH]cnc2[nH]1`, for which the melting point fell in the range of 196 to 200 °C.

In turn, `O[C@H]1CC[C@H](CN2CCC(=C3c4ccc(F)cc4Sc4ccc(C(F)(F)F)cc43)CC2)CC1` registered a melting point of 144 to 146 °C.

`N#Cc1cc(F)cc(C#N)c1` registered a melting point of 98 to 100 °C.

Take `CC(C)=NN=c1scc(C)n1C`: the melting point was in the range of 139 to 140 °C.

As to `CCCCC(OC)c1nc2c(N)nc3ccccc3c2n1CC(C)C` (configuration not stated), the melting point fell in the range of 125 to 128 °C.

`O=C(NCc1ccccn1)c1cc(C(F)(F)F)cc(C(F)(F)F)c1` registered a melting point of 123 to 124 °C.

`CSc1nccc(C(C)=NO)n1` yielded a melting point of 150 to 152 °C.

For `O=NCNC1=Nc2ccccc2N(c2ccccc2)C(=O)C1`, the melting point lay in the range of 139 to 140 °C.

`O=Cc1ccc(NCc2cccc(Cl)c2)cn1`: the melting point lay within 102 to 105 °C.

In turn, `COc1cccc(Nc2ccnc(Nc3cc(OC)c(OC)c(SC)c3)n2)c1` returned a melting point of 68 to 70 °C.

With `CCOC(=O)C(=CN(C)C)C(=O)Nc1ccc(Br)cc1C`, the melting point lay in the range of 88 to 90 °C.

For the compound `OCc1cn(-c2ccc(SC(F)(F)F)cc2)cn1`, the melting point was 145 to 147 °C.

For the compound `CCCc1c(Oc2ccc(C(=O)O)cc2C(=O)O)ccc(C(C)=O)c1O`, the melting point is 280 to 283 °C.

In turn, `N#Cc1ccc(OCc2ccccc2)cc1O` came in with a melting point of 130 °C.

For the compound `O=C(O)c1c[nH]c(CCc2ccccc2)n1`, the melting point lay in the range of 126 to 130 °C.

Turning to `COCC#Cc1cc2c(O)c(C(=O)NCc3ccc(Cl)cc3)cnc2s1`, the melting point was 215 to 218 °C.

Turning to `N#Cc1cc(-c2ccnc(Nc3cccc(C(F)(F)F)c3)n2)ccn1`, the melting point was in the range of 164 to 166 °C.

Consider `CCOC(=O)N1CCCC(NC(=O)c2ccc(Cl)c(Cl)c2)C12CCCCC2` (configuration not stated), for which the melting point was in the range of 74 to 77 °C.

`Cc1nc2c(cc1NC(=N)N=C=O)CCCCC2CO[N+](=O)[O-]` (configuration not stated) displayed a melting point of 120 to 121 °C.

For `O=C(CC(CCCc1ccccc1)C(=O)O)c1ccc(Br)cc1` (configuration not stated), the melting point came out at 147 °C.

The compound `NC(=O)c1ccc(OCCNCC(O)COc2nccnc2Cl)cc1` (configuration not stated) displayed a melting point of 134 to 135 °C.

`Cc1ccc(N(C)C)cc1C=O` displayed a melting point of 64 to 65 °C.

`Cc1cc(C)c2ncn(/C=C/C(=O)O)c(=O)c2c1` had a melting point of 284 to 288 °C.

Take `COC(=O)c1cc(-c2ccccc2C)c(C(=O)OC)cc1I`: the melting point was in the range of 105 to 109 °C.

On to `O=C(NCc1cccs1)C12CC3CC(CC1C3)C2`, for which the melting point fell in the range of 143 to 145 °C.

In turn, `Cc1c(F)cc(C(=O)OC(C)(C)C)cc1I` yielded a melting point of 77 to 80 °C.

For the compound `CC1=Nc2c(C)nn(C)c2C2=NC(C)CN12` (configuration not stated), the melting point lay in the range of 169 to 172 °C.

For `CN(C(=O)OC(C)(C)C)c1cccc(-c2nc(=O)c3ccccc3s2)n1`, the melting point was determined as 196 °C.

Consider `N#CSCC(I)=C(I)CCl`, for which the melting point lay in the range of 76 to 78 °C.

For `COc1ccnc(C(=O)N[C@H]2COC(=O)[C@H](Cc3ccccc3)[C@@H](OC(=O)C(C)C)[C@H](C)OC2=O)c1OCc1ccccc1`, the melting point lay in the range of 169 to 170 °C.

As for `CCOc1nn(C(=O)NS(=O)(=O)c2c(C)csc2C(=O)OC)c(=O)n1C`, the melting point is 169 °C.

Consider `N#Cc1ccc(C(=O)N2CCC3(CC2)C(=O)NC(=O)N3Cc2ccccc2)cc1`, for which the melting point is 207 to 209 °C.

The compound `O=c1[nH]ncn1C(c1cccc(Cl)c1)c1ccnc2ccccc12` (configuration not stated) returned a melting point of 244 °C.

`N#CCNC(=O)C1CC1` showed a melting point of 91 to 92 °C.

Compound `CN(Cc1ccccc1S(=O)c1nc2ccccc2[nH]1)c1ccccc1` (configuration not stated) displayed a melting point of 164 to 166 °C.

The compound `C=CC1CN(S(=O)(=O)c2ccc(C)cc2)CCN1S(=O)(=O)c1ccc(C)cc1` (configuration not stated) registered a melting point of 177 to 178 °C.

In the case of `COc1cc(OC)nc(NC(=O)NS(=O)(=O)c2cccc3c2SC(C)(C)C3)n1`, the melting point was 190 to 192 °C.

Compound `O=S(=O)(c1ccc(I)cc1)N1CCOCC1` gave a melting point of 141 to 144 °C.

In turn, `N#Cc1cccc(-c2ccc3c(c2)C2(CCCC2)C(=O)N3)c1` came in with a melting point of 217 to 219 °C.

For `Cc1nc2cc(C(O)(c3ccc(Cl)cc3)c3cncn3C)cc3c(-c4cccc(Cl)c4)cc(=O)n1c23` (configuration not stated), the melting point is 170 °C.

`CS(=O)(=O)N(Cc1ccccn1)CC(O)(Cn1cncn1)c1ccc(Cl)cc1Cl` (configuration not stated): the melting point was 154 to 156 °C.

The compound `Cc1coc(NC(=O)C2=C(O)c3c(c4ccccc4n3C)S(=O)(=O)N2C)n1` registered a melting point of 128 °C.

Turning to `Cc1[nH]c(=O)c(C#N)cc1-c1ccccc1OCC(C)C(=O)O` (configuration not stated), the melting point was in the range of 228 to 230 °C.

`CSC(CC(=O)O)c1ccc(C(F)(F)F)cc1` (configuration not stated) displayed a melting point of 106 to 108 °C.

Turning to `CC1(C)Nc2c(Cl)cccc2NC1=O`, the melting point was 153 to 156 °C.

For `OC(COc1ccccc1Br)C(Cl)(Cl)Cl` (configuration not stated), the melting point is 88 to 90 °C.

`CCOC(=O)CC(=O)Nc1ncc(Br)s1` had a melting point of 165 to 166 °C.

Take `O=S(=O)(c1ccc(Cl)cc1)c1ccc(Cl)s1`: the melting point came to 108 °C.

Turning to `O=C(Nc1ccc([N+](=O)[O-])cc1)C(=O)N1CCC(Cc2ccc(F)cc2)CC1`, the melting point was 157 to 159 °C.

Turning to `CC1(C)CCC(C)(C)c2cc(C(O)COc3ccc(CO)c(O)c3)ccc21` (configuration not stated), the melting point was 110 to 115 °C.

As for `CC1CCCC1n1ncc(-c2ccc(S(C)(=O)=O)cc2)c(-c2ccc(F)cc2)c1=O` (configuration not stated), the melting point is 180 to 181 °C.

`CN1CCN(CCCNc2ncc3cc(-c4c(Cl)cccc4Cl)c(NC(=O)Nc4ccc(Br)cc4)nc3n2)CC1` gave a melting point of 171 to 175 °C.

In the case of `CCCCCCCCCCCCNC(=O)c1ccccc1N`, the melting point is 73 to 75 °C.

As for `CCCCCCCCCCCCCCOc1ccccc1CO`, the melting point is 33 to 34 °C.

`CCOC(=O)NN=Cc1c[nH]c(C)n1` returned a melting point of 210 to 212 °C.

In turn, `CC1(C)Cc2cc(S(N)(=O)=O)ccc2O1` returned a melting point of 157 to 160 °C.

As for `ON=C(c1ccccc1)c1ccc(C(=NO)c2ccccc2)cc1`, the melting point was in the range of 230 to 233 °C.

Compound `CCCCCCCCCCOc1ccc(-c2ccc(C#CCCC(C)OC(C)=O)cc2)cc1` (configuration not stated) yielded a melting point of 80 to 82 °C.

The compound `CCCCCCCCCCCCCCCCCC(=O)NCC(C)(C)COC(=O)CCc1cc(C(C)(C)C)c(O)c(C(C)(C)C)c1` returned a melting point of 44 °C.

With `O=c1cc(C(F)(F)F)cnn1-c1cc(Oc2ncccn2)c(Cl)cc1F`, the melting point was in the range of 156 to 160 °C.

Compound `O=C(c1ccc(O)c(Cl)c1Cl)c1ccnn1Cc1ccccc1` showed a melting point of 131 to 133 °C.

`CCCCCCCCOc1ccc(C(C)(C)CC(C)(C)C)cc1S(=O)(=O)NCC(C)c1nn2nc(C)c(Cl)c2[nH]1` (configuration not stated) displayed a melting point of 135 to 137 °C.

On to `CCCCCCCn1c(C)c(CC(=O)O)c2cc(OCc3ccc4ccccc4n3)ccc21`, for which the melting point was in the range of 127 to 131 °C.

`O=C(O)CCCCCCCn1cnc(-c2ccccc2)c1-c1ccccc1` yielded a melting point of 130 °C.

Turning to `COc1cc2c(cc1Nc1ncc(Cl)c(Nc3ccccc3S(=O)(=O)N(C)C)n1)CCN(CC(=O)N1CCN(C)CC1)CC2`, the melting point is 140 °C.

As to `COc1ccccc1Oc1c(NS(=O)(=O)c2ccc(C(C)(C)C)cc2)nc(-c2ncccn2)nc1OCCOc1ccc(Br)cc1`, the melting point was 251 to 256 °C.

`Clc1c2ccccc2nc2cc(-c3ccccc3)ccc12` gave a melting point of 104 to 108 °C.

`CCC[C@H]1CC[C@H](OC(=O)c2ccc(OCC)c(F)c2F)CC1`: the melting point stood at 93 °C.

Turning to `Oc1c(Br)cc(Cl)cc1Cc1cc(F)cc(Cc2cc(Cl)cc(Br)c2O)c1O`, the melting point came to 164 °C.

Compound `CCNC(=O)n1nc(Oc2ccc(N)c(C(F)(F)F)c2)cc1C` came in with a melting point of 102 to 104 °C.

With `CC(CO)N=C(c1ccccc1)c1cc(Cl)ccc1NC(=O)CN` (configuration not stated), the melting point was in the range of 168 to 172 °C.

Consider `CC(O)(C#CCCO)c1ccc(-c2ccc(Cl)cc2)cc1` (configuration not stated), for which the melting point worked out at 105 °C.

For `Cc1nc2ccccn2c(=O)c1CCN1CCC(Nc2nc3cncnc3n2Cc2cnccn2)CC1`, the melting point was determined as 180 °C.

Compound `CCCCCC(=O)NS(=O)(=O)CCc1cc(OC(C)C)nn1Cc1ccc(Cl)cc1Cl` returned a melting point of 107 to 108 °C.

As for `CC(C)(C)OC(=O)N1CC(=NO)C2(CC2)C1`, the melting point lay within 117 to 119 °C.

For `Cc1nc(N)c2nc(CO)n(NC3CCOCC3)c2c1C`, the melting point is more than 250 °C.

Regarding `O=Cc1c[nH]cc1-c1ccccc1Cl`, the melting point was in the range of 147 to 148 °C.

`CNC(=O)NS(=O)(=O)c1ccccc1C=CC(F)(F)F`: the melting point lay within 190 to 192 °C.

With `Cn1ncc(-c2ccc(OCCCCl)cc2)cc1=O`, the melting point is 90 to 91 °C.

With `CCCS(=O)(=O)c1ccc2c(c1)C1(O)C(C2)SC(=NCC)N1CC` (configuration not stated), the melting point was found to be 136 °C.

`N=C(NO)c1ccc2nc(N[C@@H]3CCc4ccccc43)ccc2c1` displayed a melting point of 236 °C.

For the compound `O=C(O)C1=Cc2cc(Cl)c(Oc3cccnc3)cc2OC1C(F)(F)F` (configuration not stated), the melting point lay in the range of 238 to 239 °C.

Compound `COc1cc(C=Cc2ccccc2)c(C#N)c(OC)c1` had a melting point of 147 to 148 °C.

Take `CN(C)c1cccc(Cc2cc3cccc(-c4cccc(C(=O)NCC(N)=O)c4)c3s2)c1`: the melting point was 149 to 151 °C.

Take `CC(=O)Nc1ccc([N+](=O)[O-])c2c(Br)ccc(C)c12`: the melting point was in the range of 216 to 217 °C.

The compound `NNC(=O)C(CC1CC2CCN1CC2)(c1ccccc1)c1ccccc1` (configuration not stated) had a melting point of 158 to 160 °C.

The compound `Cc1ccc2c(O)c(C(=O)O)cnc2c1` registered a melting point of 264 to 265 °C.

For `ClCOc1nc(Cl)c(Cl)cc1Cl`, the melting point lay within 94 to 96 °C.

With `COc1ccccc1N1CCCN(c2ccnc3sc(C(N)=O)c(N)c23)CC1`, the melting point lay in the range of 179 to 184 °C.

On to `O=C(c1ccc(Cl)cc1)N1CCC(=Cc2ccc(C3=NCCO3)cc2F)CC1`, for which the melting point lay within 150 to 152 °C.
